In US20080261994A1, “CYCLOPROPANE COMPOUNDS AND PHARMACEUTICAL USE THEREOF” (Japan Tobacco Inc., priority 2003, published 2008) one finds IC50 data, which are given here for 34 compounds.

What all share (format): biochemical
One test concerns the target T1, MMP-1 (Homo sapiens, UniProt P03956).
T1 sequence (P03956 100-469): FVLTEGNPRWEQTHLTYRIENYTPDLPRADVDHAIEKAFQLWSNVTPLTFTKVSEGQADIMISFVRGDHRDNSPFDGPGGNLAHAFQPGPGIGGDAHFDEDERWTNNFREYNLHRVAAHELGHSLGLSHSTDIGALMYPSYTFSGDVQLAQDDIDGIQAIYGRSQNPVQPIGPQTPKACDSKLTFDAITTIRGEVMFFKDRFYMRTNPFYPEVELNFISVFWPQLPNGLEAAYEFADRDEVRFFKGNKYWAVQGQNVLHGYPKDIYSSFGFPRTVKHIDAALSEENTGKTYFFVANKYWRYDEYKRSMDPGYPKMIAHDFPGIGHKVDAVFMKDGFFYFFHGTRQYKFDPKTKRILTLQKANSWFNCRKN
Briefly: MMP-1 inhibitory action (Type I collagen Activity Measurement kit, FITC-labeled collagen type I). The conditions noted are these: Experimental Example 2; read-out: IC50 MMP1.

For a further test, the target named is T2, aggrecanase-1 (Homo sapiens, UniProt O75173).
T2 sequence (O75173 213-837): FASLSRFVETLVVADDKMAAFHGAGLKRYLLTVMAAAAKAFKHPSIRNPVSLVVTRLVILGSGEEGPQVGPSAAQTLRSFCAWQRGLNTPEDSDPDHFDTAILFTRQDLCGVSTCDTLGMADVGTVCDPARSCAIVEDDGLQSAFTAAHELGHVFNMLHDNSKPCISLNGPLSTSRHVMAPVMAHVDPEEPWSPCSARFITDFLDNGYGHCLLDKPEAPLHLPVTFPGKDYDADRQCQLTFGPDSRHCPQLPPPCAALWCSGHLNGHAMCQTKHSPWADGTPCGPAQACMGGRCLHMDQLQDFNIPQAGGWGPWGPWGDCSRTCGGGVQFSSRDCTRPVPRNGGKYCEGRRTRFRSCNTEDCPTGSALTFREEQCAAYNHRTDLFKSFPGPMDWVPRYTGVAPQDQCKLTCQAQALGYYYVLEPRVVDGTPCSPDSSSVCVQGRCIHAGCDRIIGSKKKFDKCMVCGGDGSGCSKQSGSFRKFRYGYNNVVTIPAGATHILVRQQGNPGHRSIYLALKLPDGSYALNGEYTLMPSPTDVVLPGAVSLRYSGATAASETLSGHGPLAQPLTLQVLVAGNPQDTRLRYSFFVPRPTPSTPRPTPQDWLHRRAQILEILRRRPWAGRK
In words: Aggrecanase-1 inhibitory action (Particle Assay, GAG release from aggrecan-containing polyacrylamide particles). Conditions: Experimental Example 1; read-out: IC50 AG1. The essentials:
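Enzyme and compound incubated with aggrecan-containing polyacrylamide particles in Tris-HCl buffer at 37° C for 15 h. Released GAG in supernatant measured with 1,9-dimethylmethylene blue at 595 nm against chondroitin sulfate standard; % inhibition from enzyme-free and inhibitor-free wells, reported as TC50 (μM).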

The next test has as its target T3, Recombinant Human MMP-13 (Homo sapiens, UniProt P45452).
T3 construct: purchased R&D systems 511-MM
Briefly: MMP-13 inhibitory activity (MMP-13 specific fluorescent substrate with quencher). The conditions noted are these: Experimental Example 3; read-out: IC50 MMP13. The method, boiled down:
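Recombinant human MMP-13 with test compound, reaction started with quenched fluorogenic peptide 7-MCA-Pro-CHA-Gly-NVal-His-Ala-DPA in Tris-HCl buffer, 1 h at 25 °C, stopped with acetic acid. Fluorescence at Ex 325/Em 405 nm; % inhibition versus enzyme-free and inhibitor-free wells, reported as IC50 (μM).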

As for `CC(C)Nc1ccc2c(c1)CN(S(=O)(=O)N[C@@]1(C(=O)O)C(C)[C@@H]1c1ccccc1)C2` (stereo partly drawn) [Example 2-552], the figures for the IC50 at MMP-1, on aggrecanase-1 and on Recombinant Human MMP-13 were at least 1000 nM, at least 1000 nM and under 1000 nM, respectively.
As for `CC1[C@H](c2ccccc2)[C@]1(NS(=O)(=O)N1CCC(OCc2ccc(Cl)cc2Cl)C1)C(=O)O` (stereo partly drawn) [Example 2-553], the IC50 at MMP-1, on aggrecanase-1 and on Recombinant Human MMP-13 was at least 1000 nM in each case.
Take `O=C(O)[C@]1(NS(=O)(=O)c2ccc(-n3cc(Cl)cn3)nc2)C[C@@H]1c1ccccc1` [Example 2-554]: the results for the IC50 at MMP-1, at aggrecanase-1 and on Recombinant Human MMP-13 were at least 1000 nM, at least 1000 nM and under 1000 nM, respectively.
In the case of `CCOC(=O)c1cc(-c2ccc(S(=O)(=O)N[C@@]3(C(=O)O)C(C)[C@@H]3c3ccccc3)s2)no1` (stereo partly drawn) [Example 2-555], the IC50 at MMP-1 is at least 1000 nM; on aggrecanase-1, under 1000 nM; at Recombinant Human MMP-13, under 1000 nM.
In the case of `CC1[C@H](c2ccccc2)[C@]1(NS(=O)(=O)c1ccc(-n2cc(C(F)(F)F)cn2)nc1)C(=O)O` (stereo partly drawn) [Example 2-556], the values for the IC50 at MMP-1, at aggrecanase-1 and at Recombinant Human MMP-13 were at least 1000 nM, at least 1000 nM and under 100 nM, respectively.
As to `CC1[C@H](c2ccccc2)[C@]1(NS(=O)(=O)c1ccc(-n2cc(Cl)cn2)nc1)C(=O)O` (stereo partly drawn) [Example 2-557], the IC50 at MMP-1 was at least 1000 nM; on aggrecanase-1 it was under 1000 nM; on Recombinant Human MMP-13, under 100 nM.
For `O=C(O)[C@]1(NS(=O)(=O)c2ccc(-n3cc(C(F)(F)F)cn3)nc2)C[C@@H]1c1ccccc1` [Example 2-558], in that order: at least 1000 nM, at least 1000 nM and under 1000 nM.
For `COCCCC1(c2ccccc2)CC1(NS(=O)(=O)c1ccc(-c2ccc(Cl)cc2)s1)C(=O)O` (stereo not drawn) [Example 2-559], in that order: at least 1000 nM, under 100 nM and under 1000 nM.
With `COCCCC1(c2ccccc2)CC1(NS(=O)(=O)c1ccc(-n2cc(Cl)cn2)s1)C(=O)O` (stereo not drawn) [Example 2-560], the IC50 was at least 1000 nM on MMP-1, under 1000 nM on aggrecanase-1 and under 1000 nM at Recombinant Human MMP-13.
For the compound `CC1[C@H](c2ccccc2)[C@]1(NS(=O)(=O)c1ccc(-n2cc(CO)cn2)s1)C(=O)O` (stereo partly drawn) [Example 2-561], the half-inhibitory concentration (IC50) on MMP-1, on aggrecanase-1 and at Recombinant Human MMP-13 was under 100 nM throughout.
`C[C@]1(c2ccccc2)C[C@@]1(NS(=O)(=O)c1ccc(/C=C/C(F)(F)F)s1)C(=O)O` [Example 2-562]: the IC50 at MMP-1, on aggrecanase-1 and at Recombinant Human MMP-13 was at least 1000 nM throughout.
As to `C[C@]1(c2ccccc2)C[C@@]1(NS(=O)(=O)c1ccc(/C=C\C(F)(F)F)s1)C(=O)O` [Example 2-563], the IC50 at MMP-1, on aggrecanase-1 and on Recombinant Human MMP-13 was at least 1000 nM throughout.
On to `C[C@]1(c2ccccc2)C[C@@]1(NS(=O)(=O)c1ccc(-c2ccc(Cl)c(CO)c2)s1)C(=O)O` [Example 2-564], for which the figures for the concentration for half-maximal inhibition (IC50) on MMP-1, on aggrecanase-1 and at Recombinant Human MMP-13 were at least 1000 nM, under 100 nM and under 100 nM, respectively.
With `CC1[C@H](c2ccccc2)[C@]1(NS(=O)(=O)c1ccc(-c2ccc(Cl)c(CO)c2)s1)C(=O)O` (stereo partly drawn) [Example 2-565], the IC50 on MMP-1 was under 1000 nM; on aggrecanase-1, under 100 nM; at Recombinant Human MMP-13, under 100 nM.
As to `C[C@]1(c2ccccc2)C[C@@]1(NS(=O)(=O)c1ccc(-c2ccc(Cl)cc2Cl)s1)C(=O)O` [Example 2-566], the IC50 is at least 1000 nM at MMP-1, under 1000 nM on aggrecanase-1 and at least 1000 nM at Recombinant Human MMP-13.
With `C[C@]1(c2ccccc2)C[C@@]1(NS(=O)(=O)c1ccc(-c2ccc(C#N)cc2)s1)C(=O)O` [Example 2-567], the results for the IC50 on MMP-1, on aggrecanase-1 and on Recombinant Human MMP-13 were at least 1000 nM, under 100 nM and under 1000 nM, respectively.
For `C[C@]1(c2ccccc2)C[C@@]1(NS(=O)(=O)c1ccc2c(c1)Cc1cc(Cl)ccc1-2)C(=O)O` [Example 2-568], in that order: under 1000 nM, under 100 nM and under 100 nM.
For `CC1[C@H](c2ccccc2)[C@]1(NS(=O)(=O)c1ccc2c(c1)Cc1cc(Cl)ccc1-2)C(=O)O` (stereo partly drawn) [Example 2-569], in that order: under 1000 nM, under 100 nM and under 100 nM.
For `CC1[C@H](c2ccccc2)[C@]1(NS(=O)(=O)c1ccc(-c2cn3ccccc3n2)s1)C(=O)O` (stereo partly drawn) [Example 2-570], in that order: at least 1000 nM, under 1000 nM and under 100 nM.
Turning to `CC1[C@H](c2ccccc2)[C@]1(NS(=O)(=O)c1ccc(-c2cn3cccnc3n2)s1)C(=O)O` (stereo partly drawn) [Example 2-571], the figures for the IC50 at MMP-1, at aggrecanase-1 and at Recombinant Human MMP-13 were at least 1000 nM, at least 1000 nM and under 1000 nM, respectively.
As to `C[C@]1(c2ccccc2)C[C@@]1(NS(=O)(=O)c1ccc(-c2ccc(C(F)(F)F)cc2)s1)C(=O)O` [Example 2-572], the figures for the IC50 at MMP-1, at aggrecanase-1 and on Recombinant Human MMP-13 were at least 1000 nM, under 100 nM and under 100 nM, respectively.
As for `CC(=O)c1ccc(-c2ccc(S(=O)(=O)N[C@@]3(C(=O)O)C[C@]3(C)c3ccccc3)s2)cc1` [Example 2-573], the IC50 on MMP-1 was at least 1000 nM; on aggrecanase-1, under 1000 nM; on Recombinant Human MMP-13, under 100 nM.
For `C[C@]1(c2ccccc2)C[C@@]1(NS(=O)(=O)c1ccc(-c2ccc(CO)cc2)s1)C(=O)O` [Example 2-574], in that order: under 1000 nM, under 1000 nM and under 100 nM.
For `CC1[C@H](c2ccccc2)[C@]1(NS(=O)(=O)c1ccc(-n2cc(C(F)(F)F)cn2)s1)C(=O)O` (stereo partly drawn) [Example 2-577], in that order: under 1000 nM, under 100 nM and under 100 nM.
Take `CC1[C@H](c2ccccc2)[C@]1(NS(=O)(=O)c1ccc(-c2cc(C(N)=O)on2)s1)C(=O)O` (stereo partly drawn) [Example 2-578]: the IC50 was at least 1000 nM at MMP-1, under 1000 nM on aggrecanase-1 and under 100 nM on Recombinant Human MMP-13.
As for `CC1[C@H](c2ccccc2)[C@]1(NS(=O)(=O)c1ccc(-c2cc(C#N)on2)s1)C(=O)O` (stereo partly drawn) [Example 2-579], the IC50 was under 1000 nM on MMP-1, under 100 nM at aggrecanase-1 and under 100 nM on Recombinant Human MMP-13.
In the case of `CC1[C@H](c2ccccc2)[C@]1(NS(=O)(=O)c1ccc(-n2cc(C#N)cn2)s1)C(=O)O` (stereo partly drawn) [Example 2-580], the IC50 at MMP-1 is at least 1000 nM; at aggrecanase-1, under 1000 nM; at Recombinant Human MMP-13, under 100 nM.
For `C[C@]1(c2ccccc2)C[C@@]1(NS(=O)(=O)c1ccc(-c2ccc(F)c(F)c2)s1)C(=O)O` [Example 2-581], in that order: at least 1000 nM, under 100 nM and under 1000 nM.
As for `C[C@]1(c2ccccc2)C[C@@]1(NS(=O)(=O)c1ccc(-c2ccc(O)cc2)s1)C(=O)O` [Example 2-582], the IC50 at MMP-1 was at least 1000 nM; on aggrecanase-1, under 1000 nM; on Recombinant Human MMP-13 it was under 1000 nM.
For `CC1[C@H](c2ccccc2)[C@]1(NS(=O)(=O)c1ccc(-c2nc3ccccc3[nH]2)s1)C(=O)O` (stereo partly drawn) [Example 2-584], the IC50 is at least 1000 nM at MMP-1, under 1000 nM on aggrecanase-1 and under 100 nM at Recombinant Human MMP-13.
For `Cn1cc(-c2ccc(S(=O)(=O)N[C@@]3(C(=O)O)C[C@]3(C)c3ccccc3)s2)nn1` [Example 2-587], in that order: at least 1000 nM, at least 1000 nM and under 1000 nM.
For `COCCCC1(c2ccccc2)CC1(NS(=O)(=O)c1ccc(-c2cc(C(F)(F)F)on2)s1)C(=O)O` (stereo not drawn) [Example 2-588], in that order: under 1000 nM, under 100 nM and under 1000 nM.
For `C[C@]1(c2ccccc2)C[C@@]1(NS(=O)(=O)c1ccc(-c2ccc(O)c(F)c2)s1)C(=O)O` [Example 2-589], in that order: at least 1000 nM, under 1000 nM and at least 1000 nM.
`CC1[C@H](c2ccccc2)[C@]1(NS(=O)(=O)c1ccc(-c2ccc(C(F)(F)F)cc2)s1)C(=O)O` (stereo partly drawn) [Example 2-590]: the IC50 at MMP-1 was at least 1000 nM; on aggrecanase-1 it was under 100 nM; on Recombinant Human MMP-13, under 100 nM.
